In US11478451B1, “Macrocyclic chlorine substituted indole derivatives” (Bayer Aktiengesellschaft, priority 2017, dated 2022):
Structures can show the parent of a compound that is named as a salt. Where two headings read alike, the source gives them in different places.

What was measured:
AMO-1 cells = experiment: Antiproliferation assay (CellTiter-Glo, 72 h), AMO-1; format: cell-based; conditions: IC50, median, AMO-1, 72 h, read-out: Antiproli AMO-1 [M] median
Procedure, shortened: (§1)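 CellTiter-Glo luminescence readout; 72 h compound exposure, 37 °C, humidified; rim wells excluded; time-zero reference plate plated in parallel and read identically.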

HMC-1-8 cells = experiment: Antiproliferation assay (CellTiter-Glo, 72 h), HMC-1-8; format: cell-based; conditions: IC50, median, HMC-1-8, 72 h, read-out: Antiproli HMC-1-8 [M] median
Procedure, shortened: as §1

SUDHL10 cells [1] = experiment: Induction of cytotoxicity (CellTiter-Glo, 5 h), SUDHL10; conditions: SUDHL10, 5 h
SUDHL10 cells [2] = experiment: Induction of caspase-3/7 activity (Caspase-Glo 3/7), SUDHL10; format: cell-based; conditions: EC50, median, SUDHL10, 3 h treatment
Procedure, shortened: (§2)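 Caspase-Glo 3/7 luminescence after 3 h compound treatment, 37 °C, humidified; medium-only background subtracted; rim wells excluded.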

T47D cells = experiment: Antiproliferation assay (CellTiter-Glo, 72 h), T47D; format: cell-based; conditions: IC50, median, T47D (head printed T4713), read-out: Antiproli T4713 [M] median
Protocol: (§3) Assessment of the Anti-Proliferative Effect of Compounds in Different Cell Lines
(§4) The impact of compounds on the proliferation of different cell lines was assessed using the CellTiter-Glo® Luminescent Cell Viability reagent from Promega (G7573).
(§5) In parallel, cells were plated in a reference (day 0) plate for time zero determination.
(§6) Rim wells were excluded. The cells were incubated for 72 h hours in a humidified incubator at 37° C. The day 0 plate was measured by adding 30 μL/well of CTG solution (CellTiter-Glo® Luminescent Cell Viability reagent, Promega G7573) to time zero wells in the reference plate followed by a 10 minutes incubation and luminescence reading at 0.1 ms. using the PHERAstar FS microplate reader (BMG Labtech).
(§7) After 72 h incubation, the treated plates were measured in the same way as the day 0 plate mentioned above.

SUDHL5 cells [3] = experiment: Antiproliferation assay (CellTiter-Glo, 72 h), SUDHL5; format: cell-based; conditions: IC50, median, SUDHL5, 72 h, read-out: Antiproli SUDHL5 [M] (median)
Procedure, shortened: as §1

DMS-114 cells = experiment: Antiproliferation assay (CellTiter-Glo, 72 h), DMS-114; format: cell-based; conditions: IC50, median; DMS-114, 72 h; read-out: Antiproli DMS-114 [M] median
Procedure, shortened: as §1

SNU-389 cells = experiment: Antiproliferation assay (CellTiter-Glo, 72 h), SNU-389; format: cell-based; conditions: IC50, median; SNU-389, 72 h; read-out: Antiproli SNU-389 [M] median
Procedure, shortened: as §1

SUDHL5 cells [4] = experiment: Induction of cytotoxicity (CellTiter-Glo, 5 h), SUDHL5; conditions: SUDHL5, 5 h
SUDHL10 cells [5] = experiment: Antiproliferation assay (CellTiter-Glo, 72 h), SUDHL10; format: cell-based; conditions: IC50, median, SUDHL10, 72 h, read-out: Antiproli SUDHL10 [M] (median)
Protocol: as §3, §4, §5, §6, §7

SUDHL5 cells [6] = experiment: Induction of caspase-3/7 activity (Caspase-Glo 3/7), SUDHL5; format: cell-based; conditions: EC50, median, SUDHL5, 3 h treatment
Procedure, shortened: as §2

A2058 cells = experiment: Antiproliferation assay (CellTiter-Glo, 72 h), A2058; format: cell-based; conditions: A2058, 72 h, read-out: Antiproli A2058 [M] median
Protocol: as §3, §4, §5, §6, §7

MV-4-11 cells = experiment: Antiproliferation assay (CellTiter-Glo, 72 h), MV-4-11; format: cell-based; conditions: IC50, median, MV-4-11, 72 h, read-out: Antiproli MV-4-11 [M] median
Protocol: as §3, §4, §5, §6, §7

[7] = the molecule shown is the open-chain precursor, crosslinker bond, 11-membered ring, (Z)-1,4-dichlorobut-2-ene/Cs2CO3/NaI, MeCN, […]
SK-BR-3 cells = experiment: Antiproliferation assay (CellTiter-Glo, 72 h), SK-BR-3; format: cell-based; conditions: SK-BR-3, 72 h, IC50, median, read-out: Antiproli SK-BR-3 [M] median
Protocol: as §3, §4, §5, §6, §7

NCI-H23 cells = experiment: Antiproliferation assay (CellTiter-Glo, 72 h), NCI-H23; format: cell-based; conditions: NCI-H23, 72 h, read-out: Antiproli NCI-H23 [M] median
Protocol: as §3, §4, §5, §6, §7

[8] = read-out: Cytotox SUDHL10 [M] (median), IC50, median
[9] = read-out: Cytotox SUDHL5 [M] (median), IC50, median
[10] = Homo sapiens, SU-DHL10, 5 h, read-out: Cytotox SUDHL10 [M] (median), IC50, median

With `Cc1c2c(nn1C)COCCCCn1c(C(=O)O)c(CCCOc3cccc4cc(F)ccc34)c3ccc(Cl)c-2c31` (single isomer, unassigned; enantiomer 1) [Example 15, (+)-4-chloro-7-{3-[(6-fluoronaphthalen-1-yl)oxy]propyl}-2,3-dimethyl-2,10,11,12,13,15-hexahydropyrazolo[4′,3′:9,10][1,6]oxazacycloundecino[8,7,6-hi]indole-8-carboxylic acid-N-ethylethanamine salt (Enantiomer 1)] the IC50 (AMO-1 cells) was 5.3e-07 M, the IC50 (HMC-1-8 cells) was 1.4e-06 M and the IC50 (SUDHL10 cells [1]; [8]) was 2.3e-07 M. The EC50 (SUDHL10 cells [2]) was 150 nM, the IC50 (T47D cells) was 1.19e-05 M and the IC50 (SUDHL5 cells [3]) was 1.9e-07 M. For the same molecule, the IC50 (DMS-114 cells) was 6.42e-07 M, the IC50 (SNU-389 cells) was 9.28e-07 M and the IC50 (SUDHL5 cells [4]; [9]) was 1.4e-07 M. The IC50 (SUDHL10 cells [5]) was 2e-07 M, the EC50 (SUDHL5 cells [6]) was 120 nM and the IC50 (A2058 cells; IC50, median) was 5.86e-06 M. It also gave an IC50 (MV-4-11 cells) of 4.61e-07 M.
With `CCOC(=O)c1[nH]c2c(-c3c(CO)nn(C)c3CC)c(Cl)ccc2c1CCCOc1cccc2cc(F)ccc12` the ring closure, isolated yield ([7]; 77.0 mM) was 82%.
With `Cc1c2c(nn1C)COCCCCn1c(C(=O)O)c(CCCOc3cccc4ccccc34)c3ccc(Cl)c-2c31` (racemic) [Example 25, (rac)-4-chloro-2,3-dimethyl-7-[3-(naphthalen-1-yloxy)propyl]-2,10,11,12,13,15-hexahydropyrazolo[4′,3′:9,10][1,6]oxazacycloundecino[8,7,6-hi]indole-8-carboxylic acid] the IC50 (AMO-1 cells; Homo sapiens, AMO1, 72 h) was 1.3e-06 M, the IC50 (HMC-1-8 cells; 72 h) was 6.5e-06 M and the IC50 (SUDHL10 cells [1]; [10]) was 9.3e-07 M. For the same molecule, the EC50 (SUDHL10 cells [2]; Homo sapiens, SU-DHL10, 3 h) was 1200 nM, the IC50 (SK-BR-3 cells; Homo sapiens) was 1.29e-05 M and the IC50 (SUDHL5 cells [3]; Homo sapiens, SU-DHL-5, 72 h) was 5.6e-07 M. For the same molecule, the IC50 (SUDHL5 cells [4]; Homo sapiens, SU-DHL-5, 5 h, read-out: Cytotox SUDHL5 [M] (median), IC50, median) was 5.3e-07 M, the IC50 (NCI-H23 cells; Homo sapiens) was 6.01e-06 M and the EC50 (SUDHL5 cells [6]; Homo sapiens, SU-DHL-5, 3 h) was 390 nM. For the same molecule, the IC50 (A2058 cells; Homo sapiens) was 2.19e-05 M and the IC50 (MV-4-11 cells; Homo sapiens, MV4-11, 72 h) was 2.78e-06 M.
`CCOC(=O)c1[nH]c2c(-c3c(CO)nn(C)c3C)c(Cl)ccc2c1CCCOc1cccc2ccccc12` showed a ring closure, isolated yield ([7]; 70.0 °C) of 71%.
Molecule `CCc1nn(CCN2CCOCC2)c2c1-c1c(Cl)ccc3c(CCCOc4cccc5ccccc45)c(C(=O)O)n(c13)CCCCOC2` (single isomer, unassigned; enantiomer 1) [Example 9, 4-chloro-3-ethyl-1-[2-(morpholin-4-yl)ethyl]-7-[3-(naphthalen-1-yloxy)propyl]-1,10,11,12,13,15-hexahydropyrazolo[4′,3′:9,10][1,6]oxazacycloundecino[8,7,6-hi]indole-8-carboxylic acid-N-ethylethanamine salt (Enantiomer 1)] has an IC50 (AMO-1 cells) of 8.7e-07 M, an IC50 (SUDHL10 cells [1]; [8]) of 3.4e-07 M and an EC50 (SUDHL10 cells [2]) of 330 nM. For the same molecule, the IC50 (SK-BR-3 cells) was 1.08e-06 M, the IC50 (SUDHL5 cells [3]) was 3.7e-07 M and the IC50 (SUDHL5 cells [4]; [9]) was 2.9e-07 M. The IC50 (SUDHL10 cells [5]; Homo sapiens, SU-DHL10, 72 h) was 2.7e-07 M, the EC50 (SUDHL5 cells [6]) was 270 nM and the IC50 (MV-4-11 cells) was 8.23e-07 M.
Molecule `CCOC(=O)c1[nH]c2c(-c3c(CC)nn(C)c3CO)c(Cl)ccc2c1CCCOc1cccc2cc(F)ccc12` has a ring closure, isolated yield [7] of 84%.
For `CCc1nn(CCN2CCOCC2)c2c1-c1c(Cl)ccc3c(CCCOc4cccc5ccccc45)c(C(=O)O)n(c13)CCCCOC2` (racemic) [Example 8, (rac)-4-chloro-3-ethyl-1-[2-(morpholin-4-yl)ethyl]-7-[3-(naphthalen-1-yloxy)propyl]-1,10,11,12,13,15-hexahydropyrazolo[4′,3′:9,10][1,6]oxazacycloundecino[8,7,6-hi]indole-8-carboxylic acid], the IC50 (SUDHL10 cells [1]; [10]) was 4.5e-07 M, the EC50 (SUDHL10 cells [2]; Homo sapiens, SU-DHL10, 3 h) was 360 nM and the IC50 (SK-BR-3 cells) was 3e-06 M. It also gave an IC50 (SUDHL5 cells [3]) of 4.7e-07 M, an IC50 (SUDHL5 cells [4]; [9]) of 3.5e-07 M and an EC50 (SUDHL5 cells [6]) of 290 nM. It also gave an IC50 (MV-4-11 cells) of 1.1e-06 M.
Work on `Cc1c2c(nn1C)COCCCCn1c(C(=O)O)c(CCCOc3cccc4ccccc34)c3ccc(Cl)c-2c31` (single isomer, unassigned; enantiomer 1) [Example 26, 4-chloro-2,3-dimethyl-7-[3-(naphthalen-1-yloxy)propyl]-2,10,11,12,13,15-hexahydropyrazolo-[4′,3′:9,10][1,6]oxazacycloundecino[8,7,6-hi]indole-8-carboxylic acid-N-ethylethanamine salt (Enantiomer 1)] yielded an IC50 (AMO-1 cells) of 1e-06 M, an IC50 (HMC-1-8 cells) of 2.9e-06 M and an IC50 (SUDHL10 cells [1]; [8]) of 5e-07 M. It also gave an EC50 (SUDHL10 cells [2]) of 410 nM, an IC50 (SK-BR-3 cells) of 3.3e-06 M and an IC50 (SUDHL5 cells [3]) of 5.8e-07 M. It also gave an IC50 (DMS-114 cells) of 1.76e-06 M, an IC50 (SNU-389 cells) of 1.66e-06 M and an IC50 (SUDHL5 cells [4]; [9]) of 4.6e-07 M. It also gave an IC50 (NCI-H23 cells; IC50, median) of 2.32e-06 M, an EC50 (SUDHL5 cells [6]) of 250 nM and an IC50 (A2058 cells; IC50, median) of 1.49e-05 M. The IC50 (MV-4-11 cells) was 1.81e-06 M.
